The values that follow come from PubChem BioAssay AID328 (DTP/NCI, 2004).

“And” between values parts separate entries of the source, which are not always exact repeats. Equal entries are not always repeated. Inconclusive results and toxic doses are left out.

The experiment relates to BDF1 mice, P388 leukemia ip, median survival T/C. The experiment in a line: NCI In Vivo Anticancer Drug Screen. Data for tumor model P388 Leukemia (intraperitoneal) in B6D2F1 (BDF1) mice. Conditions: endpoint: median survival time, higher = longer survival. In outline: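 In tumour-bearing mice, survival after compound treatment is set against the vehicle group and given as a quotient.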

The mark [1] stands for this setting: dose: 12.5 mg/kg/injection, schedule: Q04DX003 (ip), vehicle: water.
Setting [2] is: dose: 25.0 mg/kg/injection, schedule: Q04DX003 (ip), vehicle: water.
The mark [3] stands for this setting: dose: 50.0 mg/kg/injection, schedule: Q04DX003 (ip), vehicle: water.
Where [4] appears, read: dose: 100.0 mg/kg/injection, schedule: Q04DX003 (ip), vehicle: water.
[5] abbreviates: dose: 100.0 mg/kg/injection, schedule: Q01DX009 (ip), vehicle: saline with Tween-80.
Setting [6] is: dose: 100.0 mg/kg/injection, schedule: Q04DX003 (ip), vehicle: Klucel (hydroxypropylcellulose) (HPC).
Setting [7] is: dose: 200.0 mg/kg/injection, schedule: Q04DX003 (ip), vehicle: Klucel (hydroxypropylcellulose) (HPC).
Setting [8] is: dose: 400.0 mg/kg/injection, schedule: Q04DX003 (ip), vehicle: Klucel (hydroxypropylcellulose) (HPC).

Regarding `CCOC(=O)C(C(=O)COC)C(=O)OCC`, the T/C reads like this: under setting [1], 100 % of control; under setting [2], 108 % of control; under setting [3], 105 % of control; under setting [4], 115 % of control; (dose: 200.0 mg/kg/injection, schedule: Q04DX003 (ip), vehicle: water) 115 % of control.

Turning to `COc1ccc(CC(=O)NCCc2ccc3cc(OC)c(OC)cc3c2)cc1OC`, the T/C was 95 % of control under setting [5]; 95 % of control (dose: 200.0 mg/kg/injection, schedule: Q01DX009 (ip), vehicle: saline with Tween-80); 91 % of control (dose: 400.0 mg/kg/injection, schedule: Q01DX009 (ip), vehicle: saline with Tween-80).

`CCC[P+](c1ccccc1)(c1ccccc1)c1ccccc1`: the T/C by setting is: (dose: 2.0 mg/kg/injection, schedule: Q01DX009 (ip), vehicle: saline) 111 % of control; (dose: 4.0 mg/kg/injection, schedule: Q01DX009 (ip), vehicle: saline) 115 % of control; (dose: 8.0 mg/kg/injection, schedule: Q01DX009 (ip), vehicle: saline) 123 % of control.

As to `O=C(Cn1ccc(=O)[nH]c1=O)N1CCOCC1`, the T/C runs as follows: (dose: 100.0 mg/kg/injection, schedule: Q01DX009 (ip), vehicle: water) 104 % of control; (dose: 200.0 mg/kg/injection, schedule: Q01DX009 (ip), vehicle: water) 104 % of control; (dose: 400.0 mg/kg/injection, schedule: Q01DX009 (ip), vehicle: water) 95 % of control.

Turning to `Cn1/c2cc/c1=C(\c1ccc(S(=O)(=O)O)cc1)c1ccc([n-]1)/C(c1ccc(S(=O)(=O)O)cc1)=c1/cc/c([nH]1)=C(\c1ccc(S(=O)(=O)O)cc1)c1ccc([n-]1)/C=2c1ccc(S(=O)(=O)O)cc1.O.O=S(=O)(O)C(F)(F)F.[Cu+2]`, the T/C (dose: 6.25 mg/kg/injection, schedule: Q01DX009 (ip), vehicle: saline) was 101 % of control and the T/C (dose: 50.0 mg/kg/injection, schedule: Q01DX009 (ip), vehicle: saline) is 101 % of control.

`CCCCN1C(=O)C/C(=C2\CC(=O)N(CCCC)C2=O)C1=O`: the T/C runs as follows: under setting [6], 116 % of control; under setting [7], 95 % of control; under setting [8], 95 % of control.

Take `CC1(C)CC(=O)C=C(NCc2ccccc2)C1`: the T/C (dose: 37.5 mg/kg/injection, schedule: Q01DX009 (ip), vehicle: Klucel (hydroxypropylcellulose) (HPC)) was 100 % of control; the T/C (dose: 75.0 mg/kg/injection, schedule: Q01DX009 (ip), vehicle: Klucel (hydroxypropylcellulose) (HPC)) was 100 % of control; the T/C (dose: 150.0 mg/kg/injection, schedule: Q01DX009 (ip), vehicle: Klucel (hydroxypropylcellulose) (HPC)) was 100 % of control.

As for `CC(=O)OC1C2(CC3N4C(=O)C5(CO)SSC4(CC31O)C(=O)N5C)OC(C)C(C)(C)C2=O` (stereo unspecified), the T/C reads like this: (dose: 3.13 mg/kg/injection, schedule: Q01DX009 (oral), vehicle: saline) 95 % of control; (dose: 6.25 mg/kg/injection, schedule: Q01DX009 (oral), vehicle: saline) 100 % of control; (dose: 12.5 mg/kg/injection, schedule: Q01DX009 (oral), vehicle: saline) 103 % of control.

Take `Cc1cccc(NC(=S)N(C)C)c1`: the T/C (dose: 100.0 mg/kg/injection, schedule: Q04DX003 (ip), vehicle: saline with Tween-80) was 95 % of control; the T/C (dose: 200.0 mg/kg/injection, schedule: Q04DX003 (ip), vehicle: saline with Tween-80) was 100 % of control; the T/C (dose: 400.0 mg/kg/injection, schedule: Q04DX003 (ip), vehicle: saline with Tween-80) was 100 % of control.

`CCCCc1ccc(NC(=O)N(CCCl)N=O)cc1`: the T/C runs as follows: (dose: 2.5 mg/kg/injection, schedule: Q01DX009 (ip), vehicle: Klucel (hydroxypropylcellulose) (HPC)) 160 % of control; (dose: 2.5 mg/kg/injection, schedule: Q04DX003 (ip), vehicle: Klucel (hydroxypropylcellulose) (HPC)) 175 % of control; (dose: 4.0 mg/kg/injection, schedule: Q01DX009 (ip), vehicle: Klucel (hydroxypropylcellulose) (HPC)) 180 % of control; (dose: 4.0 mg/kg/injection, schedule: Q04DX003 (ip), vehicle: Klucel (hydroxypropylcellulose) (HPC)) 191 % of control; (dose: 8.0 mg/kg/injection, schedule: Q01DX009 (ip), vehicle: Klucel (hydroxypropylcellulose) (HPC)) 230 % of control; (dose: 8.0 mg/kg/injection, schedule: Q04DX003 (ip), vehicle: Klucel (hydroxypropylcellulose) (HPC)) 208 % of control. The T/C is, setting by setting: (dose: 10.0 mg/kg/injection, schedule: Q04DX003 (ip), vehicle: other) 172 % of control; (dose: 16.0 mg/kg/injection, schedule: Q01DX009 (ip), vehicle: Klucel (hydroxypropylcellulose) (HPC)) 225 % of control; (dose: 16.0 mg/kg/injection, schedule: Q04DX003 (ip), vehicle: Klucel (hydroxypropylcellulose) (HPC)) 233 % of control; (dose: 20.0 mg/kg/injection, schedule: Q04DX003 (ip), vehicle: other) 172 % of control; (dose: 32.0 mg/kg/injection, schedule: Q01DX009 (ip), vehicle: Klucel (hydroxypropylcellulose) (HPC)) 100 % of control; (dose: 66.0 mg/kg/injection, schedule: Q04DX003 (ip), vehicle: other) 222 % of control. The T/C reads like this: (dose: 99.0 mg/kg/injection, schedule: Q04DX003 (ip), vehicle: other) 186 % of control; (dose: 150.0 mg/kg/injection, schedule: Q04DX003 (ip), vehicle: other) 254 % of control; (dose: 225.0 mg/kg/injection, schedule: Q04DX003 (ip), vehicle: other) 245 % of control.

As to `CCOC(=O)CNC(=O)Sc1ccc(C(C)(C)C)cc1`, the T/C runs as follows: (dose: 25.0 mg/kg/injection, schedule: Q01DX009 (ip), vehicle: Klucel (hydroxypropylcellulose) (HPC)) 121 % of control; (dose: 200.0 mg/kg/injection, schedule: Q01DX009 (ip), vehicle: Klucel (hydroxypropylcellulose) (HPC)) 108 % of control.

Consider `CN(C)Cc1cccc(N)c1`, for which the T/C reads like this: (dose: 0.25 mg/kg/injection, schedule: Q01DX009 (ip), vehicle: water) 120 % of control; (dose: 0.5 mg/kg/injection, schedule: Q01DX009 (ip), vehicle: water) 111 % of control; (dose: 1.0 mg/kg/injection, schedule: Q01DX009 (ip), vehicle: water) 113 % of control; (dose: 2.0 mg/kg/injection, schedule: Q01DX009 (ip), vehicle: water) 120 % of control; (dose: 4.0 mg/kg/injection, schedule: Q01DX009 (ip), vehicle: water) 92 % of control; under setting [1], 100 % of control. The T/C reads like this: under setting [2], 100 % of control; under setting [3], 91 % of control; under setting [4], 97 % of control.

For `CC#CC(=O)O`, the T/C was 100 % of control (dose: 12.5 mg/kg/injection, schedule: Q01DX009 (ip), vehicle: saline with Tween-80); 106 % of control (dose: 25.0 mg/kg/injection, schedule: Q01DX009 (ip), vehicle: saline with Tween-80); 109 % of control (dose: 50.0 mg/kg/injection, schedule: Q01DX009 (ip), vehicle: saline with Tween-80); 106 % of control under setting [5].

As for `CCOC(=O)C[Si](C)(C)C`, the T/C is, setting by setting: (dose: 25.0 mg/kg/injection, schedule: Q04DX003 (ip), vehicle: Klucel (hydroxypropylcellulose) (HPC)) 99 % of control; (dose: 50.0 mg/kg/injection, schedule: Q04DX003 (ip), vehicle: Klucel (hydroxypropylcellulose) (HPC)) 99 % of control; under setting [6], 97 % of control; under setting [7], 101 % of control; under setting [8], 109 % of control.

Consider `CCCCCCCCCCNC1CC(OC2CC(O)(C(C)=O)Cc3c(O)c4c(c(O)c32)C(=O)c2c(OC)cccc2C4=O)OC(C)C1O` (stereo unspecified), for which the T/C runs as follows: (dose: 3.13 mg/kg/injection, schedule: Q01DX009 (ip), vehicle: water) 108 % of control; (dose: 6.25 mg/kg/injection, schedule: Q01DX009 (ip), vehicle: water) 103 % of control.

Consider `CO[C@@H]([CH2][Hg][S]C#N)[C@@H]([CH2][Hg][S]C#N)OC`, for which the T/C reads like this: (dose: 6.25 mg/kg/injection, schedule: Q01DX009 (ip), vehicle: other) 110 % of control; (dose: 12.5 mg/kg/injection, schedule: Q01DX009 (ip), vehicle: other) 120 % of control; (dose: 25.0 mg/kg/injection, schedule: Q01DX009 (ip), vehicle: other) 100 % of control and 109 % of control; (dose: 25.0 mg/kg/injection, schedule: Q04DX003 (ip), vehicle: other) 100 % of control; (dose: 50.0 mg/kg/injection, schedule: Q04DX003 (ip), vehicle: other) 103 % of control; (dose: 100.0 mg/kg/injection, schedule: Q04DX003 (ip), vehicle: saline sonified) 90 % of control.
